From ChEMBL document CHEMBL5352478, “Novel pyridine-containing histone deacetylase inhibitors strongly arrest proliferation, induce apoptosis and modulate miRNAs in cancer cells” (Eur J Med Chem, 2023)

How the values were obtained:
[1] = test system: HCT-116; assay: cells; format: functional, cell-based; conditions: Homo sapiens, HCT-116, 72 h
[2] = test system: A549; assay: cells; format: functional, cell-based; conditions: Homo sapiens, A549, 72 h
[3] = test system: K562; assay: cells; format: functional, cell-based; conditions: Homo sapiens, K562, 72 h
[4] = test system: U-937; assay: Induction of cell cycle arrest in human U-937 cells assessed as accumulation of cells in G1 phase at 5 uM for 48 hrs by PI staining based flow cytometric analysis; format: functional

For `Nc1ccccc1NC(=O)c1ccc(CNC(=O)OCc2cccnc2)cc1` [ENTINOSTAT], which IC50 [1] is on record?
The IC50 was 1060 nM.

What about the IC50 [2] of the same compound?
Its IC50 is 2250 nM.

And the IC50 [3]?
The IC50 was 570 nM.

And the Activity [4]?
Its Activity is 70%.
